Assays:
[1] = target: T1, huPPARγ (Homo sapiens, UniProt P37231); assay: DNA-dependent binding (ABCD binding) using SPA technology, huPPARγ; details: SPA displacement of tritium-labeled PPARγ agonist radioligand
T1 sequence (P37231 1-505): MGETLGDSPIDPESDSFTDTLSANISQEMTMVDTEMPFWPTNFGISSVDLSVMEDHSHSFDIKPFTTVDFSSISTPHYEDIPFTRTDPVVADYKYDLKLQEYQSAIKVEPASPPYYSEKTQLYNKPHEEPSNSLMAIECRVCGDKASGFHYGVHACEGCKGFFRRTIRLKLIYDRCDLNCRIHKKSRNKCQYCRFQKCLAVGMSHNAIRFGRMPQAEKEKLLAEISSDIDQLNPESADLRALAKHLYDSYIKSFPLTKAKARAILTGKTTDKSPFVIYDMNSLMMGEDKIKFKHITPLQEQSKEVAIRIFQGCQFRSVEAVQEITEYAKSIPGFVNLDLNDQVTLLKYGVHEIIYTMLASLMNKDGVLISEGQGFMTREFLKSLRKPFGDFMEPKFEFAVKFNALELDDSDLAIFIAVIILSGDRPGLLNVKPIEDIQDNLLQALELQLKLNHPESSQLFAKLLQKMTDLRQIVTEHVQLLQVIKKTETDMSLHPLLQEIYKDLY
T1 sequence (P19793 1-462 partner): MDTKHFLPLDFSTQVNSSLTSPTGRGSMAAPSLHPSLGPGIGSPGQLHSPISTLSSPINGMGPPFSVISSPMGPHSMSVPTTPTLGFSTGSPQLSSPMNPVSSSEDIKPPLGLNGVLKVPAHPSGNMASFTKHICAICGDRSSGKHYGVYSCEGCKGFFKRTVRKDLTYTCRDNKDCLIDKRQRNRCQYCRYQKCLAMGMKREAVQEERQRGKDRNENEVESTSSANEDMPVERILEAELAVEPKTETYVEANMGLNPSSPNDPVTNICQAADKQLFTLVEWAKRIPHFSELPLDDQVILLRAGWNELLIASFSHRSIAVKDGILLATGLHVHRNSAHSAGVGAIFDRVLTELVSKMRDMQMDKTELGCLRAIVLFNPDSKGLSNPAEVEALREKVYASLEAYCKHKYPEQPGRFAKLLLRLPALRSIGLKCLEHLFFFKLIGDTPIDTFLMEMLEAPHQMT
Description: DNA-dependent binding (ABCD binding) was carried out using SPA technology with PPAR receptors. Tritium-labeled PPARα and PPARγ agonists were used as radioligands for generating displacement curves and IC50 values with compounds of the invention. Cotransfection assays were carried out in CV-1 cells. The reporter plasmid contained an acylCoA oxidase (AOX) PPRE and TK promoter upstream of the luciferase reporter cDNA. Appropriate PPARs and RXRα were constitutively expressed using plasmids containing the CMV promoter. […] In order to eliminate such interference, a GAL4 chimeric system was used in which the DNA binding domain of the transfected PPAR was replaced by that of GAL4, and the GAL4 response element was utilized in place of the AOX PPRE. Cotransfection efficacy was determined relative to PPARα agonist and PPARγ agonist reference molecules. Efficacies were determined by computer fit to a concentration-response curve, or in some cases at a single high concentration of agonist (10 μM). For binding or cotransfection studies with receptors other than PPARs, similar assays were carried out using appropriate ligands, receptors, reporter constructs, etc., for that particular receptor.
These studies were carried out to evaluate the ability of compounds of the invention to bind to and/or activate various nuclear transcription factors, particularly huPPARα (“hu” indicates “human”) and huPPARγ. These studies provide in vitro data concerning efficacy and selectivity of compounds of the invention. Furthermore, binding and cotransfection data for compounds of the invention were compared with corresponding data for marketed compounds that act on either huPPARα or huPPARγ.

[2] = system: HuapoAI transgenic mice; assay: Evaluation of triglyceride and cholesterol level in HuapoAI transgenic mice; format: in vivo; details: Mus musculus, 168 h, human apoAI transgenic mice, 30 mg/kg oral gavage daily for 7 days; for change in vivo at 30 mg/kg: FPLC area under the curve, over mice receiving vehicle, read-out: % HDLc Increase; for inhibition in vivo at 30 mg/kg: serum 3 h after dosing, read-out: Reduction in Triglyceride Serum Level
In short: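 Mice got daily oral gavage doses for 7 days, and blood was drawn by cardiac puncture under isoflurane 3 h after the final dose. Serum triglycerides and total cholesterol were measured colorimetrically against standard curves. VLDL, LDL and HDL cholesterol came from Superose 6 FPLC in PBS-EDTA with in-line detection, as peak areas.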

Row | Structure (SMILES) | IC50 [1] | change in vivo at 30 mg/kg [2] | inhibition in vivo at 30 mg/kg [2]
1 | Cc1oc(C2CCCCC2)nc1CCOc1ccc(CC(C)(Oc2ccc(C3CCCCC3)cc2)C(=O)O)cc1 (centres unmarked) [Example 34, 3-{4-[2-(2-Cyclohexyl-5-methyl-oxazol-4-yl)-ethoxy]-phenyl}-2-(4-cyclohexyl-phenoxy)-2-methyl-propionic acid] | 77 nM | 95% | 57.1%
2 | Cc1ccc(OC(C)(Cc2ccc(OCCc3nc(-c4cccs4)oc3C)cc2)C(=O)O)cc1C (centres unmarked) [Example 36, 2-(3,4-Dimethyl-phenoxy)-2-methyl-3-{4-[2-(5-methyl-2-thiophen-2-yl-oxazol-4-yl)-ethoxy]-phenyl}-propionic acid] | 88 nM | 30% | 23%
3 | Cc1cccc(OC(C)(Cc2ccc(OCCc3nc(-c4cccs4)oc3C)cc2)C(=O)O)c1 (centres unmarked) [Example 61, 2-Methyl-3-{4-[2-(5-methyl-2-thiophen-2-yl-oxazol-4-yl)-ethoxy]-phenyl}-2-m-tolyloxy-propionic acid] | 84 nM | 72% | 17.6%
4 | Cc1oc(-c2ccccc2)nc1CCOc1ccc(CC(C)(Oc2ccc3c(c2)OCO3)C(=O)O)cc1 (centres unmarked) [Example 78, 2-(Benzo[1,3]dioxol-5-yloxy)-2-methyl-3-{4-[2-(5-methyl-2-phenyl-oxazol-4-yl)-ethoxy]-phenyl}-propionic acid] | 89 nM | 95% | 64.8%
5 | Cc1oc(C2(C)CCCCC2)nc1CCOc1ccc(CC(C)(Oc2ccccc2)C(=O)O)cc1 (centres unmarked) [Example 9, 2-Methyl-3-(4-{2-[5-methyl-2-(1-methylcyclohexyl)oxazol-4-yl]ethoxy}phenyl)-2-phenoxypropionic acid] | 11 nM | 123% | 19.8%
6 | Cc1oc(C2CCCCC2)nc1CCOc1ccc(CC(C)(Oc2ccc(F)c(F)c2)C(=O)O)cc1 (centres unmarked) [Example 58, 3-{4-[2-(2-Cyclohexyl-5-methyl-oxazol-4-yl)-ethoxy]-phenyl}-2-(3,4-difluoro-phenoxy)-2-methyl-propionic acid] | 66 nM | 74% | 26.5%
7 | Cc1oc(C2CCCCC2)nc1CCOc1ccc(CC(C)(Oc2ccc(F)cc2)C(=O)O)cc1 (centres unmarked) [Example 65, 3-{4-[2-(2-Cyclohexyl-5-methyl-oxazol-4-yl)-ethoxy]-phenyl}-2-(4-fluoro-phenoxy)-2-methyl-propionic acid] | 82 nM | 75% | 54%
8 | Cc1oc(-c2cccs2)nc1CCOc1ccc(CC(C)(Oc2ccc(F)cc2)C(=O)O)cc1 (centres unmarked) [Example 64, 2-(4-Fluoro-phenoxy)-2-methyl-3-{4-[2-(5-methyl-2-thiophen-2-yl-oxazol-4-yl)-ethoxy]-phenyl}-propionic acid] | 112 nM | 66% | 43%
9 | Cc1cccc(OC(C)(Cc2ccc(OCCc3nc(C4CCCCC4)oc3C)cc2)C(=O)O)c1 (centres unmarked) [Example 62, 3-{4-[2-(2-Cyclohexyl-5-methyl-oxazol-4-yl)-ethoxy]-phenyl}-2-methyl-2-m-tolyloxy-propionic acid] | 79 nM | 72% | 2.5%
10 | Cc1oc(C2CCCCC2)nc1CCOc1ccc(CC(C)(Oc2ccc3c(c2)OCO3)C(=O)O)cc1 (centres unmarked) [Example 80, 2-(Benzo[1,3]dioxol-5-yloxy)-3-{4-[2-(2-cyclohexyl-5-methyl-oxazol-4-yl)-ethoxy]-phenyl}-2-methyl-propionic acid] | 80 nM | 123% | 36.6%
11 | Cc1ccc(OC(C)(Cc2ccc(OCCc3nc(-c4cccs4)oc3C)cc2)C(=O)O)cc1 (centres unmarked) [Example 40, 2-Methyl-3-{4-[2-(5-methyl-2-thiophen-2-yl-oxazol-4-yl)-ethoxy]-phenyl}-2-p-tolyloxy-propionic acid] | 10 nM | 131% | 77.6%
12 | Cc1oc(-c2ccccc2)nc1CCCc1ccc(CC(C)(Oc2ccccc2)C(=O)O)s1 (centres unmarked) [Example 91, 2-Methyl-3-{5-[3-(5-methyl-2-phenyl-oxazol-4-yl)-propyl]-thiophen-2-yl}-2-phenoxy-propionic acid] | 51 nM | 46% | –
13 | Cc1oc(-c2cccs2)nc1CCOc1ccc(CC(C)(Oc2ccccc2F)C(=O)O)cc1 (centres unmarked) [Example 27, 2-(2-Fluoro-phenoxy)-2-methyl-3-{4-[2-(5-methyl-2-thiophen-2-yl-oxazol-4-yl)-ethoxy]-phenyl}-propionic acid] | 76 nM | 49% | 36.8%

Source: US7345070B2, “Peroxisome proliferator activated receptor agonists” (Eli Lilly and Company, priority 2000, dated 2008)
